Laboratory results: patent publication US20200190136A1, “METHODS FOR GENERATING SMALL MOLECULE DEGRADERS AND DIMERIZERS” (DANA-FARBER CANCER INSTITUTE, INC., priority 2017, published 2020)
Entries after “also recorded” stand apart in the source; their conditions may differ. Each block holds one compound with its values, some of them ahead of it.

Tests used:
[1] = test system: BRD4BD1 and BRD4BD2; settings: Filippakopoulos, Qi et al. 2010; cited from earlier work
[2] = biological target: T1, BRD4BD1 (Homo sapiens, UniProt O60885); test: BRD4BD1-EGFP/mCherry reporter cellular degradation assay (flow cytometry); format: cell-based; settings: BRD4BD1-EGFP reporter cells
T1 construct: expressed in transfected cells
Method: (§1) Stable cell lines expressing eGFP-protein fusion and mCherry reporter were generated using Flip-In 293 system. Plasmid (0.3 μg) and pOG44 (4.7 μg) DNA were preincubated in 100 μL of Opti-MEM I (Gibco, Life Technologies) media containing 0.05 mg/ml Lipofectamine 2000 (Invitrogen) for 20 min and added to Flip-In 293 cells containing 1.9 ml of DMEM media (Gibco, Life Technologies) per well in a 6-well plate format (Falcon, 353046). Cells were propagated after 48 h and transferred into a 10 cm^2 plate (Corning, 430165) in DMEM media containing 50 μg/ml of Hygromycin B (REF 10687010, Invitrogen) as a selection marker. […]
(§2) Cells were seeded at 30-50% confluency in either 24, 48 or 96 well plates (3524, 3548, 3596 respectively, Costar) a day before compound treatment. Titrated compounds were incubated with cells for 5 h following trypsinisation and resuspention in DMEM media, transferred into 96-well plates (353910, Falcon) and analyzed by flow cytometer (guava easyCyte HT, Millipore). Signal from 5000 cells per well was acquired in singlicate or duplicate and the eGFP and mCherry florescence monitored. Data was analyzed using FlowJo (FlowJo, LCC). […] The eGFP protein abundance relative to mCherry was then quantified as a ten-fold amplified ratio for each individual cell using the formula: 10×eGFP/mCherry. […] Standard deviation is calculated from four replicates (n=4) unless described otherwise.

[3] = test system: BRD2; test: BRD2 bromodomain EGFP/mCherry reporter cellular degradation assay; format: cell-based, human; settings: BRD2 bromodomain reporter cells
Method: as §1, §2

[4] = test system: BRD3; test: BRD3 bromodomain EGFP/mCherry reporter cellular degradation assay; format: cell-based, human; settings: BRD3 bromodomain reporter cells
Method: as §1, §2

[5] = test system: BRD2BD1, BRD2BD2, BRD3BD1, BRD3BD2, BRD4BD1, BRD4BD2; test: EGFP/mCherry reporter cellular degradation across individual BET bromodomains; format: cell-based, human; settings: for selectivity of BRD4 degradation over BRD2 and BRD3: EGFP/mCherry reporter assay; for degradation activity across BET bromodomains: individual bromodomains of BRD2, BRD3, BRD4
Method: Stable cell lines expressing eGFP-protein fusion and mCherry reporter were generated using Flip-In 293 system. Plasmid (0.3 μg) and pOG44 (4.7 μg) DNA were preincubated in 100 μL of Opti-MEM I (Gibco, Life Technologies) media containing 0.05 mg/ml Lipofectamine 2000 (Invitrogen) for 20 min and added to Flip-In 293 cells containing 1.9 ml of DMEM media (Gibco, Life Technologies) per well in a 6-well plate format (Falcon, 353046). Cells were propagated after 48 h and transferred into a 10 cm^2 plate (Corning, 430165) in DMEM media containing 50 μg/ml of Hygromycin B (REF 10687010, Invitrogen) as a selection marker. Following 2-3 passage cycle FACS (FACSAria II, BD) was used to enrich for cells expressing eGFP and mCherry.
Cells were seeded at 30-50% confluency in either 24, 48 or 96 well plates (3524, 3548, 3596 respectively, Costar) a day before compound treatment. Titrated compounds were incubated with cells for 5 h following trypsinisation and resuspention in DMEM media, transferred into 96-well plates (353910, Falcon) and analyzed by flow cytometer (guava easyCyte HT, Millipore). Signal from 5000 cells per well was acquired in singlicate or duplicate and the eGFP and mCherry florescence monitored. Data was analyzed using FlowJo (FlowJo, LCC). […] The eGFP protein abundance relative to mCherry was then quantified as a ten-fold amplified ratio for each individual cell using the formula: 10×eGFP/mCherry. The median of the ratio was then calculated per set, normalized to the median of the DMSO ratio, and is denoted as relative abundance. Standard deviation is calculated from four replicates (n=4) unless described otherwise.

[6] = biological target: T2, BRD4 (Homo sapiens, UniProt O60885); test: Western blot of endogenous BRD4 in HEK293T cells; format: cell-based; settings: 5 hours, immunoblot
T2 construct: retains activity on endogenous full length BRD4; endogenous in cells; host or cells: HEK293T
Method: (§3) HEK293T cells were seeded at 90% confluency in 12 well plates (353043, Falcon), left to attach for 1.5 h, followed by the compound treatment for 5 h. Primary and secondary antibodies used included anti-BRD4 at 1:1000 dilution (A301-985A-M, Bethyl Laboratories), anti-BRD2 at 1:2,000 dilution (A302-582A, Bethyl Laboratories), anti-BRD3 at 1:500 dilution (ab56342, Abcam), anti-GAPDH at 1:10,000 dilution (G8795, Sigma), IRDye680 Donkey anti-mouse at 1:10,000 dilution (926-68072, LiCor) and IRDye800 Goat anti-rabbit at 1:10,000 dilution (926-32211, LiCor).

[7] = biological target: T3, BRD2 (Homo sapiens, UniProt P25440); test: Western blot of BRD2 in HEK293T cells; format: cell-based; settings: immunoblot
T3 construct: endogenous in cells; host or cells: HEK293T
T3 sequence (P25440 whole entry): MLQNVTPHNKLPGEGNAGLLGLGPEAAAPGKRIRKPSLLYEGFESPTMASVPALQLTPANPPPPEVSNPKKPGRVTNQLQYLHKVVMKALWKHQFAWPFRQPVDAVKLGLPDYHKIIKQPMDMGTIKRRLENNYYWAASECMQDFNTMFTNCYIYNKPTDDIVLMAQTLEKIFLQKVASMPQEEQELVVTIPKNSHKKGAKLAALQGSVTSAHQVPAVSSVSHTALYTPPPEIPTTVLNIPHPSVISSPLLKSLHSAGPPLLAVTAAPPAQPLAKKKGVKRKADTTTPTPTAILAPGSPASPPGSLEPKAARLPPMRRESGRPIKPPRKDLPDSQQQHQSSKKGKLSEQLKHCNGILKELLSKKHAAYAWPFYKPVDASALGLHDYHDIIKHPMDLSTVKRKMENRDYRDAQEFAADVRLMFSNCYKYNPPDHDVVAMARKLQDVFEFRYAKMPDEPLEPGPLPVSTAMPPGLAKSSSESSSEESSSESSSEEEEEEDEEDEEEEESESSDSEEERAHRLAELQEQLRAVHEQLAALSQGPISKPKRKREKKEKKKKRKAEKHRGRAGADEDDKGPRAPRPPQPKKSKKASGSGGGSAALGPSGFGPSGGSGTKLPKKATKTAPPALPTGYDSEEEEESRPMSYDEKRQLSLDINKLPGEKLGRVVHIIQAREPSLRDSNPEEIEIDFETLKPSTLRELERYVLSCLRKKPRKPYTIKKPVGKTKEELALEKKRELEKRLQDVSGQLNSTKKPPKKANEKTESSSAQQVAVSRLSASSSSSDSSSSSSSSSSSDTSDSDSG
Method: as §3

[8] = biological target: T4, BRD3 (Homo sapiens, UniProt Q15059); test: Western blot of BRD3 in HEK293T cells; format: cell-based; settings: immunoblot
T4 construct: endogenous in cells; host or cells: HEK293T
T4 sequence (Q15059 whole entry): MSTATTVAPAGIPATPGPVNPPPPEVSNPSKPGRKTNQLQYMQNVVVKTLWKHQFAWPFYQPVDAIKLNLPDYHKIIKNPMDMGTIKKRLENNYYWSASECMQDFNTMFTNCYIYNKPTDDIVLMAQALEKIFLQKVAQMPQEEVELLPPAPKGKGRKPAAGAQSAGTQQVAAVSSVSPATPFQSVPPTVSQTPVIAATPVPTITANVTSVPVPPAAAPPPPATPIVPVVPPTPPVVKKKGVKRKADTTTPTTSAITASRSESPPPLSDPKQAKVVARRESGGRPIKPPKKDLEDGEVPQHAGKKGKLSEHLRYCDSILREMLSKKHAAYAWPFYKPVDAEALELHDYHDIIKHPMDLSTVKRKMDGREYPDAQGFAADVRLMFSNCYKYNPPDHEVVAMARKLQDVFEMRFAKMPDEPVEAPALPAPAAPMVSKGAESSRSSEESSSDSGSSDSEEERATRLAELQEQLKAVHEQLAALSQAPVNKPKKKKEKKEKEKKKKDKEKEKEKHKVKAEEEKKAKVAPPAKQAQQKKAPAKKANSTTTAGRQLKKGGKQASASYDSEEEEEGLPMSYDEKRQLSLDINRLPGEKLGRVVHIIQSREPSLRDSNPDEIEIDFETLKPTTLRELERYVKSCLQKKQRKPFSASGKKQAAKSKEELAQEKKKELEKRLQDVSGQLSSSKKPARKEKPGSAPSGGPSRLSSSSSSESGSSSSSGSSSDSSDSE
Method: as §3

[9] = test system: DDB1ΔB-CRBN / BRD4BD1; test: TR-FRET dimerization assay, CRBN with BRD4BD1 wild type and mutants (peak height); format: binding, human; settings: BRD4BD1 Q84 mutated to R (as in BRD2) or K, reference to WT
Method: Before TR-FRET measurements were conducted, the reactions were incubated for 15 min at RT. […] The TR-FRET signal of each data point was extracted by calculating the 520/490 nm ratio. […] The peak height of TR-FRET dBET dose response data was calculated in GraphPad Prism 7 using Area Under Curve analysis for three independent replicates (n=3) and the mean peak height and standard deviation calculated.

[10] = biological target: T5, IKZF1Δ-CRBN (Homo sapiens, UniProt Q13422+Q96SW2, DEL197-239); test: TR-FRET CRBN-IKZF1Δ binding assay
T5 construct: made in house; host or cells: Trichoplusia ni High-Five insect cells (baculovirus)
T5 sequence (Q96SW2 whole entry, stated change not applied): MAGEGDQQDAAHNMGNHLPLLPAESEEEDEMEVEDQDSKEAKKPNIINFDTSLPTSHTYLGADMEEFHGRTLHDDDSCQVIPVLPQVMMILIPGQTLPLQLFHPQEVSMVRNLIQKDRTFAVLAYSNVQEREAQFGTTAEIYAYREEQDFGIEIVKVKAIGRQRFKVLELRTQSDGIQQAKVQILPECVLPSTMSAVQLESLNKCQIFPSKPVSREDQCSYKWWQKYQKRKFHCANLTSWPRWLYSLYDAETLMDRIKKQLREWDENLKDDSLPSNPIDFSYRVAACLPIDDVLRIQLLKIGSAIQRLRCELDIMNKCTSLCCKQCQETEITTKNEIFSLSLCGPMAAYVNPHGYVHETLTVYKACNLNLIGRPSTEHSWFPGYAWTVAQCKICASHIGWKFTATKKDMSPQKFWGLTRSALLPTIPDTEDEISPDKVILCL
T5 sequence (Q13422 with tags, fused parts or gaps DEL197-239): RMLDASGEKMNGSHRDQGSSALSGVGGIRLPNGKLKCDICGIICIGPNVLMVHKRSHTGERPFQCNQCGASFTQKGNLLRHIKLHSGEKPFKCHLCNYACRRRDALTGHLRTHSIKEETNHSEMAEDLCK
Method: Before TR-FRET measurements were conducted, the reactions were incubated for 15 min at RT. After excitation of terbium fluorescence at 337 nm, emission at 490 nm (terbium) and 520 nm (BODIPY) were recorded with a 70 μs delay over 600 μs to reduce background fluorescence and the reaction was followed over 30 200 second cycles of each data point using a PHERAstar FS microplate reader (BMG Labtech). The TR-FRET signal of each data point was extracted by calculating the 520/490 nm ratio. The heterobifunctional nature of small molecule degraders results in a three-body binding equilibrium complicated by potential cooperativity or avidity effects arising from protein-protein interactions (Douglass, Miller et al. 2013), all of which precludes direct interpretation of the binding data. […] The peak height of TR-FRET dBET dose response data was calculated in GraphPad Prism 7 using Area Under Curve analysis for three independent replicates (n=3) and the mean peak height and standard deviation calculated.
The standard deviation in IKZF1A TR-FRET compound titrations was calculated from three biological replicates (n=3) as an average of 5 technical replicates per well per experiment, or as an average of 5 technical replicates of single experiment for unlabelled protein titrations.

[11] = test system: IKZF1, IKZF3 and ZFP91; test: Quantitative proteomics (TMT LC-MS3) in MM.1s cells; format: cell-based, human; settings: 1 μM, five hours
Method: A micro-BCA assay (Pierce) was used to determine the final protein concentration in the cell lysate. […] Proteins were precipitated using methanol/chloroform. In brief, four volumes of methanol were added to the cell lysate, followed by one volume of chloroform, and finally three volumes of water.

[12] = biological target: T6, IKZF1Δ (Homo sapiens, UniProt Q13422+Q96SW2, DEL197-239); test: IKZF1Δ-EGFP fusion protein cellular degradation assay; format: cell-based; settings: HEK293T cells
T6 construct: expressed in transfected cells
T6 sequence (Q13422 with tags, fused parts or gaps DEL197-239): as above
T6 sequence (Q96SW2 whole entry, stated change not applied, the tested form may be a part): as the sequence (Q96SW2 whole entry, stated change not applied) above
T6 sequence (Q16531 whole entry partner, the tested form may be a part): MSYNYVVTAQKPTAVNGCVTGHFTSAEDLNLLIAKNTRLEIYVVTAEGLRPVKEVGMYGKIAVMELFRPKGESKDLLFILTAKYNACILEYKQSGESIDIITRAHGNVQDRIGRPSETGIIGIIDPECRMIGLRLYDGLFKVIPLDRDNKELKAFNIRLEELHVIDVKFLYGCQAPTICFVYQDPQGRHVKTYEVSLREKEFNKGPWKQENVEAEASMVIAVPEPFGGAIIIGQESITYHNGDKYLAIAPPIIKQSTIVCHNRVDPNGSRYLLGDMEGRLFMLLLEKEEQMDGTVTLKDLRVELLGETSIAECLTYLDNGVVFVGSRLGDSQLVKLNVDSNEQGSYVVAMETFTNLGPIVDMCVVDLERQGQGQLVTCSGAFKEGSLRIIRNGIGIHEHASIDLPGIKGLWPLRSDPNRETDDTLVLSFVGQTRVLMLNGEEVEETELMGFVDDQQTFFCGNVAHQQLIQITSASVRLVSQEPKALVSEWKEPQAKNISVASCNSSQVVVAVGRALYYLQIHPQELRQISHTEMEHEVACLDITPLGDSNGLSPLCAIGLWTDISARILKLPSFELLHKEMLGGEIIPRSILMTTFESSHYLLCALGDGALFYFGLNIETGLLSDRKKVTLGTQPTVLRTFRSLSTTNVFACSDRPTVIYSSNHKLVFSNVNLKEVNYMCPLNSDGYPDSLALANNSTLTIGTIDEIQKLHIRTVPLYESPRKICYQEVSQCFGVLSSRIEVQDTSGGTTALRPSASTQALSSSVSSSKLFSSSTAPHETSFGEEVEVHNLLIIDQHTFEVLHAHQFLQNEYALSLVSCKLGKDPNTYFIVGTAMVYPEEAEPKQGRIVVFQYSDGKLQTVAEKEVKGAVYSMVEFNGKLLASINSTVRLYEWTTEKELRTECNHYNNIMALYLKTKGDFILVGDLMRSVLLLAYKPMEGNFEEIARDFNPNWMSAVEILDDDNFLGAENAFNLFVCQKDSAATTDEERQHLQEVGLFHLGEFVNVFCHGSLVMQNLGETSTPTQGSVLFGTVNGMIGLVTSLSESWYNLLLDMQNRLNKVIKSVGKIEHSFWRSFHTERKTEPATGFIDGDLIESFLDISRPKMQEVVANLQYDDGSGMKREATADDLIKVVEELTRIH
Method: as §1, §2

Structure (SMILES): Cc1sc2c(c1C)C(c1ccc(Cl)cc1)=N[C@@H](CC(=O)OC(C)(C)C)c1nnc(C)n1-2 [JQ1]
relative affinity for BRD4BD1 and BRD4BD2 [1]: equal affinities

degradation activity on BRD4BD1 [2]: active on BRD4BD1 | DC50 ([2]; 5 h, read-out: DC50/5h (half-maximal degradation after 5 hours of treatment)): ~5 nM | degradation of BRD2 [7]: inactive | degradation of BRD3 [8]: inactive
Structure (SMILES): COC(=O)C[C@@H]1N=C(c2ccc(Cl)cc2)c2c(sc(C(=O)NCCCCCNc3cccc4c3C(=O)N(C3CCC(=O)NC3=O)C4=O)c2C)-n2c(C)nnc21 (stereo partly shown) [ZXH-03-26]
concentrations at which degradation of BRD2 is spared [3]: > 10 µM | concentrations at which degradation of BRD3 is spared [4]: > 10 µM | selectivity of BRD4 degradation over BRD2 and BRD3 [5]: selectively targets BRD4 for degradation and spares BRD2 and BRD3 | degradation activity across BET bromodomains [5]: activity exclusively on the first bromodomain of BRD4 | degradation of endogenous BRD4 [6]: degrades endogenous BRD4 with comparable efficacy compared to the best pan-BET degrader dBET6 | complex formation with CRBN (TR-FRET peak height) [9]: decreases complex formation with CRBN

Structure (SMILES): COC(=O)C[C@@H]1N=C(c2ccc(Cl)cc2)c2c(sc(C(=O)NCCCCCCCCOc3ccc4c(c3)C(=O)N(C3CCC(=O)NC3=O)C4=O)c2C)-n2c(C)nnc21 (stereo partly shown) [ZXH-2-45]
IKZF1-CRBN complex formation induced by compound [10]: greatly reduced compared to their nitrogen analogs

Structure (SMILES): COC(=O)C[C@@H]1N=C(c2ccc(Cl)cc2)c2c(sc(C(=O)NCCCCCCCCNC(=O)COc3cccc4c3C(=O)N(C3CCC(=O)NC3=O)C4=O)c2C)-n2c(C)nnc21 (stereo partly shown) [dBET23]
co-degradation of CRBN-lenalidomide neo-substrates IKZF1, IKZF3 and ZFP91 [11]: not dBET23 exhibits pronounced co-degradation

Structure (SMILES): COC(=O)C[C@@H]1N=C(c2ccc(Cl)cc2)c2c(sc(C(=O)NCCCCNc3cccc4c3C(=O)N(C3CCC(=O)NC3=O)C4=O)c2C)-n2c(C)nnc21 (stereo partly shown) [ZXH-2-184]
selectivity of BRD4 degradation over BRD2 and BRD3 [5]: selective degradation of BRD4; also recorded: selectively targets BRD4 for degradation and spares BRD2 and BRD3

Structure (SMILES): Cc1ncsc1-c1ccc(CNC(=O)[C@@H]2C[C@@H](O)CN2C(=O)[C@@H](NC(=O)COCCOCCOCCNC(=O)C[C@@H]2N=C(c3ccc(Cl)cc3)c3c(sc(C)c3C)-n3c(C)nnc32)C(C)(C)C)cc1 [MZ1, reference compound]
degradation activity across BET bromodomains [5]: activity on most bromodomains

Structure (SMILES): Cc1sc2c(c1C)C(c1ccc(Cl)cc1)=N[C@@H](CC(=O)NCCOc1cccc3c1C(=O)N(C1CCC(=O)NC1=O)C3=O)c1nnc(C)n1-2 (stereo partly shown) [ZXH-2-42]
IKZF1-CRBN complex formation induced by compound [10]: greatly reduced compared to their nitrogen analogs

Structure (SMILES): COC(=O)C[C@@H]1N=C(c2ccc(Cl)cc2)c2c(sc(C(=O)NCCCCCCCCOc3cccc4c3C(=O)N(C3CCC(=O)NC3=O)C4=O)c2C)-n2c(C)nnc21 (stereo partly shown) [ZXH-2-43]
IKZF1-CRBN complex formation induced by compound [10]: greatly reduced compared to their nitrogen analogs

Structure (SMILES): Cc1sc2c(c1C)C(c1ccc(Cl)cc1)=N[C@@H](CC(=O)NCCCCCCCCNC(=O)COc1cccc3c1C(=O)N(C1CCC(=O)NC1=O)C3=O)c1nnc(C)n1-2 (stereo partly shown) [dBET6, reference compound]
IKZF1-CRBN complex formation induced by compound [10]: do not induce IKZF1-CRBN complex formation | cellular IKZF1 degradation [12]: relatively ineffective at promoting IKZF1 degradation
